Test results reported in patent US12454551B2, “Peptides as inhibitors of fibrotic matrix accumulation” (Max-Planck-Gesellschaft zur Förderung der Wissenschaften …, priority 2019, dated 2025).
Structures can show the parent of a compound that is named as a salt. Residues, ends and D or L forms follow the SMILES beside them. No end group written: not given here.

Assays:
[1] = system: CCl4 induced liver fibrosis in mice; experiment: CCl4 induced liver fibrosis in mice (collagen accumulation in the liver); format: in vivo; conditions: for collagen accumulation in the liver (marker of matrix accumulation): mice, CCl4 for 6 weeks, peptide 25 mg/kg/mouse/day intraperitoneal in NaCl 0.9% from day 32 for 10 days, vs CCl4-treated mice, FIG. 1 and 2
Experimental: FIG. 1 Prevention of fibrosis progression by proline-containing cyclic and amidated linear peptides. Mice were injected for 6 weeks with CCl4 in order to induce liver fibrosis. Starting on day 32 the mice received daily intraperitoneal injections of 25 mg/kg/mouse/day of the peptides in 0.9% NaCl for a total of 10 days. CCl4-treated mice also received NaCl 0.9%. The healthy control group (CT) only received 0.9% NaCl. N=4/10/[…]/8/11/7 in two experiments. The following peptides were tested on CCl4-treated mice: cyclic Pro-Gly-Leu-Gln-Gly-Glu (Cyclic PGLQGE; SEQ ID NO: 6), and compared to two controls: cyclic Pro-Gly-Leu-Asn-Gly-Glu (Cyclic CT1+P: cyclic PGLNGE; SEQ ID NO: 11) and cyclic Pro-Gly-Leu-Hyp-Gly-Glu (Cyclic CT2+P: cyclic PGLOGE; SEQ ID NO: 16). Linear Gly-Leu-Gln-Gly-Glu-NH2 (Linear GLQGE-NH2; SEQ ID NO: 4) was also tested and compared to two controls: linear Gly-Leu-Asn-Gly-Glu-NH2 (Linear CT1—NH2: linear GLNGE-NH2; SEQ ID NO: 9) and linear Gly-Leu-Hyp-Gly-Glu-NH2 (Linear CT2—NH2: linear GLOGE-NH2; SEQ ID NO: 14). * p<0.05. Evaluated by t-test. Data presented as mean+SEM.
FIG. 2 Prevention of fibrosis progression by cyclic peptides and acetylated linear peptides. Mice were injected for 6 weeks with CCl4 in order to induce liver fibrosis. Starting on day 32 the mice received daily intraperitoneal injections of 25 mg/kg/mouse/day of the peptides in 0.9% NaCl for a total of 10 days. CCl4-treated mice also received NaCl 0.9%. The healthy control group (CT) only received 0.9% NaCl. N=5/18/9/9/6/5/4/4 in two experiments. The following peptides were tested on CCl4-treated mice: cyclic Gly-Leu-Gln-Gly-Glu (Cyclic GLQGE; SEQ ID NO: 5), and compared to two controls: cyclic Gly-Leu-Asn-Gly-Glu (Cyclic CT1: cyclic GLNGE; SEQ ID NO: 10) and cyclic Gly-Leu-Hyp-Gly-Glu (Cyclic CT2: cyclic GLOGE; SEQ ID NO: 15). Linear Ac-Gly-Leu-Gln-Gly-Glu (Linear Ac-GLQGE; SEQ ID NO: 3) was also tested and compared to two controls: linear Ac-Gly-Leu-Asn-Gly-Glu (Linear Ac-CT1: linear Ac-GLNGE; SEQ ID NO: 8) and linear Ac-Gly-Leu-Hyp-Gly-Glu (Linear Ac-CT2: linear Ac-GLOGE; SEQ ID NO: 13). * p<0.05, ** p<0.005. Evaluated by t-test. Data presented as mean+SEM.
Mice were injected for 6 weeks with CCl4 in order to induce liver fibrosis. Starting on day 32 the mice received daily intraperitoneal injections of the peptides at a final dose of 25 mg/kg/mouse/day diluted in NaCl 0.9% for a total of 10 days. In these experiments, the following peptides were tested: cyclic peptide Pro-Gly-Leu-Gln-Gly-Glu (SEQ ID NO: 6), cyclic peptide Pro-Gly-Leu-Asn-Gly-Glu (SEQ ID NO: 11), cyclic peptide Pro-Gly-Leu-Hyp-Gly-Glu (SEQ ID NO: 16), linear peptide Gly-Leu-Gln-Gly-Glu-NH2 (SEQ ID NO: 4), linear peptide Gly-Leu-Asn-Gly-Glu-NH2 (SEQ ID NO: 9), linear peptide Gly-Leu-Hyp-Gly-Glu-NH2 (SEQ ID NO: 14).
Mice were injected for 6 weeks with CCl4 in order to induce liver fibrosis. Starting on day 32 the mice received daily intraperitoneal injections of the peptides at a final dose of 25 mg/kg/mouse/day diluted in NaCl 0.9% for a total of 10 days. In these experiments, the following peptides were tested: cyclic peptide Gly-Leu-Gln-Gly-Glu (SEQ ID NO: 5), cyclic peptide Gly-Leu-Asn-Gly-Glu (SEQ ID NO: 10), cyclic peptide Gly-Leu-Hyp-Gly-Glu (SEQ ID NO: 15), linear peptide Ac-Gly-Leu-Gln-Gly-Glu (SEQ ID NO: 3), linear peptide Ac-Gly-Leu-Asn-Gly-Glu (SEQ ID NO: 8), linear peptide Ac-Gly-Leu-Hyp-Gly-Glu (SEQ ID NO: 13).

[2] = system: TGFβ expression in murine hepatocytes; experiment: unstimulated TGFβ expression in murine hepatocytes; format: cell-based; conditions: data not shown
[3] = system: bleomycin induced lung fibrosis in C57bl/6 mice; experiment: bleomycin induced lung fibrosis in mice (total collagen in the lung); format: in vivo; conditions: intratracheal bleomycin on day 0; 1 mg/mouse/day s.c. from day 11 for 10 days; vs bleomycin alone (p<0.05) or with control peptides
Experimental: FIG. 4 Prevention of fibrosis progression by the cyclic peptide Gly-Leu-Gln-Gly-Glu (SEQ ID NO: 5) (acetate salt). Lung fibrosis was induced in 6-week-old male C57bl/6 mice using intratracheal bleomycin instillation at a dose of 0.005 units in 50 μl on day 0. Starting on day 11, cyclic Gly-Leu-Gln-Gly-Glu (cyclic GLQGE; SEQ ID NO: 5) was injected subcutaneously at a dose of 1 mg/mouse/day in 0.9% NaCl for a total of 10 days. The control group only received daily injections of 0.9% NaCl. The number of animals in the four groups was N=14/10/10/9 in three experiments. The cyclic peptide Gly-Leu-Gln-Gly-Glu (Cyclic GLQGE; SEQ ID NO: 5) (acetate salt) was tested and compared to cyclic Ac-Gly-Leu-Asn-Gly-Glu (Cyclic GLNGE; SEQ ID NO: 10) (acetate salt) and to cyclic Ac-Gly-Leu-Hyp-Gly-Glu (Cyclic GLOGE; SEQ ID NO: 15) (acetate salt), *p<0.05. Evaluated by t-test. Data are presented as mean ±SEM.
The cyclic peptide Gly-Leu-Gln-Gly-Glu (cyclic GLQGE (SEQ ID NO: 5) acetate salt) was tested for its ability in prevention of lung fibrosis in mice. Lung fibrosis was induced in 6-week-old male C57bl/6 mice using intratracheal bleomycin instillation at a dose of 0.005 units in 50 μl 0.9% NaCl on day 0. […]

[4] = system: B16 melanoma cancer cells; experiment: B16 melanoma model in mice (tumor weight); format: in vivo; conditions: B16 melanoma cells (10^6) s.c. in mice; 1 mg peptide s.c. on day 7; tumours weighed on day 12
Experimental: FIG. 3 Prevention of cancer growth by cyclic GLQGE (SEQ ID NO: 5) in form of hydrochloride salt (cyclic GLQGE HCl salt). B16 melanoma cancer cells were injected subcutaneously in mice. On day 7, injection with 1 mg of the peptide or 0.9% NaCl subcutaneously was performed. On day 12 mice were euthanized and tumors removed and weighed. N=11/11 mice. Data presented as mean+SEM.
The cyclic peptide Gly-Leu-Gln-Gly-Glu (cyclic GLQGE; SEQ ID NO: 5) in form of hydrochloride salt was tested for its ability in prevention of cancer growth in a melanoma model in mice. B16 melanoma cancer cells (10^6 cells) were injected subcutaneously in mice. On day 7, injection with 1 mg of the cyclic GLQGE peptide (SEQ ID NO: 5) or 0.9% NaCl (control mice) subcutaneously was performed. On day 12 mice were euthanized and tumours removed and weighed. N=11/11 mice. Results are shown on FIG. 3 as mean+SEM. […] Thus, the cyclic peptide Gly-Leu-Gin-Gly-Glu (SEQ ID NO: 5) represents a promising therapeutic drug for use in the treatment of cancer.

[5] = system: breast cancer cell line MDA-MB-231; experiment: breast cancer model in mice, MDA-MB-231 intratibial (bioluminescence imaging); format: in vivo; conditions: MDA-MB-231 intratibially in CD1 nude mice; 0.1 mg s.c. daily from day 30 for 10 days; read on day 40; vs 0.9% NaCl
Experimental: FIG. 5 Prevention of breast cancer growth by cyclic GLQGE (SEQ ID NO: 5) in form of hydrochloride salt (cyclic GLQGE HCl salt). Cells from the breast cancer cell line MDA-MB-231 were injected intratibially in mice. Starting on day 30, injection with 0.1 mg/mouse/day of the cyclic peptide Gly-Leu-Gln-Gly-Glu (SEQ ID NO: 5) (cyclic GLQGE HCl salt) for 10 days or 0.9% NaCl subcutaneously was performed. On day 40, the size of the tumour was evaluated by bioluminescence imaging (Bioluminescence imaging was performed by detecting photon signal 5 minutes after D-luciferin injection (150 mg/kg) using an “IVIS Lumina II” imaging system. The resulting images were analysed using the software “Living Image”). RLU=relative light units. The number of animals in each group was N=14/7 mice, in two experiments. * p<0.05 as evaluated by t-test. Data are presented as mean+SEM.
The hydrochloride salt of cyclic peptide Gly-Leu-Gln-Gly-Glu (cyclic GLQGE; SEQ ID NO: 5) was tested for its ability in prevention of breast cancer in mice. […] On day 40, the size of the tumor was evaluated by bioluminescence imaging (Bioluminescence imaging was performed by detecting photon signal 5 minutes after D-luciferin injection (150 mg/kg) using an “IVIS Lumina II” imaging system. The resulting images were analyzed using the software “Living Image”). […]

| Compound | collagen accumulation in the liver (marker of matrix accumulation) [1] | unstimulated TGFβ expression [2] | other results |
| --- | --- | --- | --- |
| PGLQGE [SEQ ID NO: 6] | able to significantly reduce collagen accumulation | – | – |
| CC(C)C[C@@H]1NC(=O)CNC(=O)[C@H](CCC(=O)O)NC(=O)CNC(=O)[C@H](CC(N)=O)NC1=O [SEQ ID NO: 10, Gly-Leu-Asn-Gly-Glu, reference compound] (HELM PEPTIDE1{E.G.L.N.G}$PEPTIDE1,PEPTIDE1,1:R1-5:R2$$$V2.0) | failed to inhibit collagen accumulation | – | – |
| GLNGE-NH2 [SEQ ID NO: 9, Gly-Leu-Asn-Gly-Glu-NH2] | – | had no effect | – |
| Gly-Leu-Gln-Gly-Glu (GLQGE; SITE 1..5 peptide bond between the amino-terminus and the carboxyl-terminus; listed as Homo sapiens) [SEQ ID NO: 5] | able to significantly reduce collagen accumulation | – | efficiency in reducing collagen accumulation in comparison to the cyclic peptide with proline Pro-Gly-Leu-Gln-Gly-Glu (SEQ ID NO: 6) ([1]; CCl4 liver fibrosis in mice, comparison of Y-axis values of FIGS. 1 and 2, p<0.001): more efficient in reducing collagen accumulation; inhibitory effect on collagen accumulation compared to linear Gly-Leu-Gln-Gly-Glu-NH2 (SEQ ID NO: 4) or Ac-Gly-Leu-Gln-Gly-Glu (SEQ ID NO: 3) ([1]; chemically induced chronic liver damage in mice): larger inhibitory effect |
| GLQGE-NH2 [SEQ ID NO: 4, Gly-Leu-Gln-Gly-Glu-NH2] | able to significantly reduce CCl4-induced collagen accumulation | efficiently inhibits | – |
| CC(C)C[C@H](NC(=O)CN)C(=O)N1C[C@@H](O)C[C@H]1C(=O)NCC(=O)N[C@@H](CCC(=O)O)C(N)=O [SEQ ID NO: 14, Gly-Leu-Hyp-Gly-Glu-NH2] | – | had no effect | – |
| CC(C)C[C@@H]1NC(=O)CNC(=O)[C@H](CCC(=O)O)NC(=O)CNC(=O)[C@H](CCC(N)=O)NC1=O [SEQ ID NO: 5 (acetate salt), Gly-Leu-Gln-Gly-Glu] (HELM PEPTIDE1{E.G.L.Q.G}$PEPTIDE1,PEPTIDE1,1:R1-5:R2$$$V2.0) | – | – | total amount of collagen in the lung [3]: significantly diminished |
| CC(C)C[C@@H]1NC(=O)CNC(=O)[C@H](CCC(=O)O)NC(=O)CNC(=O)[C@H](CCC(N)=O)NC1=O [SEQ ID NO: 5 (HCl salt), Gly-Leu-Gln-Gly-Glu] (HELM PEPTIDE1{E.G.L.Q.G}$PEPTIDE1,PEPTIDE1,1:R1-5:R2$$$V2.0) | – | – | diminution of cancer size (tumor weight) as compared to control mice [4]: approximately 72%; size of the tumor by bioluminescence imaging [5]: significantly (p<0.05) diminished |
| CC(C)C[C@@H]1NC(=O)CNC(=O)[C@H](CCC(=O)O)NC(=O)CNC(=O)[C@@H]2C[C@@H](O)CN2C1=O [SEQ ID NO: 15, Gly-Leu-Hyp-Gly-Glu, reference compound] (HELM PEPTIDE1{E.G.L.[Hyp].G}$PEPTIDE1,PEPTIDE1,1:R1-5:R2$$$V2.0) | failed to inhibit collagen accumulation | – | – |
| Ac-GLQGE [SEQ ID NO: 3, Ac-Gly-Leu-Gln-Gly-Glu] | able to significantly reduce CCl4-induced collagen accumulation | – | – |
